{"source": "patent US11197914B2", "about": "“GLP-1R/GCGR dual target agonist polypeptide for treatment of fatty liver diseases, hyperlipemia and arteriosclerosis” (Shenzhen Turier Biotech Co., Ltd., priority 2016, dated 2021)", "key": {"[1]": {"tested_on": "high fat diet-induced hyperlipidemic mice", "assay": "High fat diet-induced NAFLD and hyperlipemia in mice", "assay_type": "in vivo, C57 mice", "details": "500 μg/kg subcutaneous once every two days, 12 weeks", "procedure": "6-8-week-old C57 mice with body weight of 20-25 g at SPF level were provided by Guangdong Medical Laboratory Animal Center and tested by SPF level laboratory in Laboratory Animal Center of Guangdong Pharmaceutical University. C57 mice were divided into control group, hepatic fibrosis model group and treatment group, 8 mice for each group. The mice were fed with high fat diet (HFD) for 12 weeks. For the treatment group, subcutaneous injection compounds 2 and 6 with 500 μg/kg of body weight were used once every two days for continuous 12 weeks. PBS with same volume and same frequency was administered for the control group. After the end of the experiment, the mice were subject to anesthesia to collect serum and liver specimens."}, "[2]": {"tested_on": "CCl4-induced hepatic fibrosis mice", "assay": "CCl4-induced hepatic fibrosis in mice", "assay_type": "in vivo, C57 mice", "details": "500 μg/kg subcutaneous once every two days, 6 weeks", "procedure": "6-8-week-old C57 mice with body weight of 20-25 g at SPF level were provided by Guangdong Medical Laboratory Animal Center and tested by SPF level laboratory in Laboratory Animal Center of Guangdong Pharmaceutical University. C57 mice were divided into control group, hepatic fibrosis model group and treatment group, 8 mice for each group. A mouse was subject to intraperitoneal injection with 20% CCl4 (2 mL/kg, diluted with olive oil at ratio of 1:4) twice a week for continuous 6 weeks to form a stable hepatic fibrosis animal model. For the treatment group, one of subcutaneous injection compounds 2, 6 and 22 with 500 μg/kg of body weight was used respectively once every two days for continuous 6 weeks. Olive oil with same volume and same frequency was administered for the control group and stopped until the end of 6-week experiment. After the end of the experiment, the mice were subject to anesthesia to collect serum and liver specimens. The liver was fixed with 10% formalin and embedded with paraffin."}, "[3]": {"tested_on": "Hepatic stellate cell strain LX-2", "assay": "In vitro inhibition of hepatic fibrosis: expression of LX-2 cell activation marker α-SMA (Western Blot, α-SMA/β-actin)", "assay_type": "cell-based, human", "details": "LX-2 cells; for Relative expression of α-SMA (α-SMA/β-actin, %): 48 hours, negative control = 100%; for Effect on expression of α-SMA (in words): 1 μM and 5 μM", "procedure": "Hepatic stellate cell strain LX-2 was selected to study and observe the effect of different doses of test substances on the expression of LX-2 cell activation marker […]. Hepatic stellate cell LX-2 was laid on 35 mm cell culture plate, cultured with DMEM (high glucose)+10% FBS+1% double-antibody culture medium (Thermo Fisher), placed overnight when the cells grew to 70% convergence at 37° C. and under the condition of 5% CO2, and treated with the above compounds 1-37 (dissolved in PBS) for 48 hours the next day morning to extract cell protein, carry out Western Blot, and take β-actin as internal reference and analyze the expression quantities of α-SMA and β-actin by a gray level of Image J 1.50i. PBS with the same volume as that in experimental group was added in negative control. […] The integrating gray level of α-SMA/β-actin in the negative control group was 100% to analyze the in vitro inhibition activity of hepatic fibrosis of tested polypeptide."}, "[4]": {"tested_on": "db/db diabetic obese mice", "assay_type": "in vivo", "details": "10 μg/mouse subcutaneous once every two days, 18 days", "procedure": "12-week-old db/db diabetic obese mice were randomly grouped into 3 groups (12-hour fasting before grouping), 6 mice in each group. Mice in each group were injected subcutaneously at a dose of 10 μg/mouse, and mice in the blank group were injected subcutaneously with PBS. The volume for each group was 0.25 ml/mouse once every two days (at 48-hour interval) for 18 days. At the end of the experiment, blood was taken from the orbital venous plexus of each mouse to measure glycosylated hemoglobin (HbAlc), insulin (INS), triglyceride (TG) and total cholesterol (TC) levels in the serum of the mouse. The liver, pancreas, heart, lungs and spleen were taken for HE pathological staining at the same time. GraphPad Prismversion6 software was used for statistical analysis."}}, "note": "*1 amine or outer side, *2 acyl side, *3 side chain or, on linkers, in order; H or OH if unused. Primed or numbered codes have the meaning given here. Where no end group is shown, it is not given here. Side-chain parts run from the residue outwards. [ ]: non-standard residue; d: D form. The star is where a group is joined. C18 diacid = O=C(O)CCCCCCCCCCCCCCCCC(=O)*; C16 diacid = O=C(O)CCCCCCCCCCCCCCC(=O)*; γGlu = O=C(O)[C@H](CCC(=O)[*:2])N[*:1]; Stearoyl = CCCCCCCCCCCCCCCCCC(=O)*; Palmitoyl = CCCCCCCCCCCCCCCC(=O)*; PEG2′ = not defined here; Aib = CC(C)(N)C(=O)O"}
{"substance": "His-(D-Ser)-Gln-Gly-Thr-Phe-Thr-Ser-Asp-Tyr-Ser-Lys-Tyr-Leu-Asp-Lys(PEG2-PEG2-γGlu-CO(CH2)14CH3)-Arg-Arg-Ala-Gln-Asp-Phe-Val-Gln-Trp-Leu-Met-Asn-Thr-Gly-Gly-Pro-Ser-Ser-Gly-Ala-Pro-Pro-Pro-Ser-NH2 (H[dS]QGTFTSDYSKYLDK([PEG2′-PEG2′-γGlu-Palmitoyl])RRAQDFVQWLMNTGGPSSGAPPPS-NH2) [Compound 6]", "values": [{"measurement": "Fatty liver complicated by hepatic fibrosis (Sirius red)", "setting": "[1]", "value": "effectively inhibit fatty liver complicated by hepatic fibrosis"}, {"measurement": "HFD-induced increase of body weight", "setting": "[1]", "value": "effectively inhibit"}, {"measurement": "Hepatic triglyceride (TG) content", "setting": "[1]", "value": "effectively reduce"}, {"measurement": "Liver lipid deposition (Oil Red O)", "setting": "[1]", "value": "effectively reduce"}, {"measurement": "Liver lipoid degeneration and non-alcoholic steatohepatitis (liver tissue biopsy)", "setting": "[1]", "value": "inhibit liver lipoid degeneration and non-alcoholic steatohepatitis"}, {"measurement": "Treatment effect on liver lipid deposition and hepatic TG compared with Liraglutide", "setting": "[1]", "value": "obviously better than Liraglutide"}, {"measurement": "Control of body weight, comparison between treatments", "setting": "[1]; compared with liraglutide", "value": "most obviously"}, {"measurement": "ALT level of serum", "setting": "[2]", "value": "obviously reduce"}, {"measurement": "CCl4-induced liver injury and fibrosis stage (HE, Sirius Red)", "setting": "[2]", "value": "obviously improved"}, {"measurement": "Inhibition of LX-2 cell activation marker α-SMA (in words, from Table 2)", "setting": "[3]", "value": "obviously reduce"}, {"measurement": "Relative expression of α-SMA (α-SMA/β-actin, %)", "setting": "[3]; 1 μM", "value": 41.19, "unit": "%"}, {"measurement": "Atrophy lesions of pancreatic islets (HE staining)", "setting": "[4]", "value": "significantly improve"}, {"measurement": "Inhibition of liver lipoid vacuolar degeneration and lipid inflammation, comparison between compounds", "setting": "[4]", "value": "better inhibition effect"}, {"measurement": "Liver lipoid vacuolar degeneration and lipid inflammation (HE staining)", "setting": "[4]", "value": "significantly inhibit"}, {"measurement": "Total cholesterol (TC) level in serum", "setting": "[4]", "value": "obviously inhibit"}, {"measurement": "Triglyceride (TG) level in serum", "setting": "[4]", "value": "obviously inhibit"}, {"measurement": "Glycosylated hemoglobin (HbAlc) level in serum", "setting": "[4]; vs blank group", "value": "significantly reduced"}, {"measurement": "Insulin (INS) level in serum", "setting": "[4]; vs blank group", "value": "up-regulated"}]}
{"substance": "His-(D-Ser)-Gln-Gly-Thr-Phe-Thr-Ser-Asp-Tyr-Ser-Lys-Tyr-Leu-Asp-Ser-Lys(PEG2-PEG2-γGlu-CO(CH2)16CH3)-Ala-Ala-His-Asp-Phe-Val-Glu-Trp-Leu-Leu-Asn-Gly-Gly-Pro-Ser-Ser-Gly-Ala-Pro-Pro-Pro-Ser-NH2 (H[dS]QGTFTSDYSKYLDSK([PEG2′-PEG2′-γGlu-Stearoyl])AAHDFVEWLLNGGPSSGAPPPS-NH2) [Compound 22]", "values": [{"measurement": "ALT level of serum", "setting": "[2]", "value": "obviously reduce"}, {"measurement": "CCl4-induced liver injury and fibrosis stage (HE, Sirius Red)", "setting": "[2]", "value": "obviously improved"}, {"measurement": "Relative expression of α-SMA (α-SMA/β-actin, %)", "setting": "[3]; 1 μM", "value": 90.56, "unit": "%"}]}
{"substance": "His-Aib-Gln-Gly-Thr-Phe-Thr-Ser-Asp-Lys(PEG2-PEG2-γGlu-CO(CH2)14CH3)-Ser-Lys-Tyr-Leu-Asp-Glu-Arg-Arg-Ala-Gln-Asp-Phe-Val-Gln-Trp-Leu-Leu-Asp-Gly-Gly-Pro-Ser-Ser-Gly-Ala-Pro-Pro-Pro-Ser-NH2 (H[Aib]QGTFTSDK([PEG2′-PEG2′-γGlu-Palmitoyl])SKYLDERRAQDFVQWLLDGGPSSGAPPPS-NH2) [Compound 16]", "values": [{"measurement": "Inhibition of LX-2 cell activation marker α-SMA (in words, from Table 2)", "setting": "[3]", "value": "obviously reduce"}, {"measurement": "Effect on expression of α-SMA (in words)", "setting": "[3]; 0.1 μM", "value": "reduce the expression of α-SMA under all concentrations"}, {"measurement": "Relative expression of α-SMA (α-SMA/β-actin, %)", "setting": "[3]; 0.1 μM", "value": 65.32, "unit": "%"}, {"measurement": "Relative expression of α-SMA (α-SMA/β-actin, %)", "setting": "[3]; 1 μM", "value": 48.88, "unit": "%"}, {"measurement": "Relative expression of α-SMA (α-SMA/β-actin, %)", "setting": "[3]; 5 μM", "value": 40.35, "unit": "%"}]}
{"substance": "His-Aib-Gln-Gly-Thr-Phe-Thr-Ser-Asp-Lys(PEG2-PEG2-γGlu-CO(CH2)14CO2H)-Ser-Lys-Tyr-Leu-Asp-Aib-Arg-Arg-Ala-Gln-Asp-Phe-Val-Gln-Trp-Leu-Leu-Asp-Gly-Gly-Pro-Ser-Ser-Gly-Ala-Pro-Pro-Pro-Ser-NH2 (H[Aib]QGTFTSDK([PEG2′-PEG2′-γGlu-C16 diacid])SKYLD[Aib]RRAQDFVQWLLDGGPSSGAPPPS-NH2) [Compound 11]", "values": [{"measurement": "Relative expression of α-SMA (α-SMA/β-actin, %)", "setting": "[3]; 1 μM", "value": 96.78, "unit": "%"}]}
{"substance": "His-Aib-Gln-Gly-Thr-Phe-Thr-Ser-Asp-Lys(PEG2-PEG2-γGlu-CO(CH2)14CO2H)-Ser-Lys-Tyr-Leu-Asp-Glu-Arg-Arg-Ala-Gln-Asp-Phe-Val-Gln-Trp-Leu-Leu-Asp-Gly-Gly-Pro-Ser-Ser-Gly-Ala-Pro-Pro-Pro-Ser-NH2 (H[Aib]QGTFTSDK([PEG2′-PEG2′-γGlu-C16 diacid])SKYLDERRAQDFVQWLLDGGPSSGAPPPS-NH2) [Compound 13]", "values": [{"measurement": "Relative expression of α-SMA (α-SMA/β-actin, %)", "setting": "[3]; 1 μM", "value": 97.93, "unit": "%"}]}
{"substance": "His-Aib-Gln-Gly-Thr-Phe-Thr-Ser-Asp-Lys(PEG2-PEG2-γGlu-CO(CH2)16CH3)-Ser-Lys-Tyr-Leu-Asp-Aib-Arg-Arg-Ala-Gln-Asp-Phe-Val-Gln-Trp-Leu-Leu-Asp-Gly-Gly-Pro-Ser-Ser-Gly-Ala-Pro-Pro-Pro-Ser-NH2 (H[Aib]QGTFTSDK([PEG2′-PEG2′-γGlu-Stearoyl])SKYLD[Aib]RRAQDFVQWLLDGGPSSGAPPPS-NH2) [Compound 12]", "values": [{"measurement": "Relative expression of α-SMA (α-SMA/β-actin, %)", "setting": "[3]; 1 μM", "value": 72.99, "unit": "%"}]}
{"substance": "His-Aib-Gln-Gly-Thr-Phe-Thr-Ser-Asp-Lys(PEG2-PEG2-γGlu-CO(CH2)16CH3)-Ser-Lys-Tyr-Leu-Asp-Glu-Arg-Arg-Ala-Gln-Asp-Phe-Val-Gln-Trp-Leu-Leu-Asp-Gly-Gly-Pro-Ser-Ser-Gly-Ala-Pro-Pro-Pro-Ser-NH2 (H[Aib]QGTFTSDK([PEG2′-PEG2′-γGlu-Stearoyl])SKYLDERRAQDFVQWLLDGGPSSGAPPPS-NH2) [Compound 14]", "values": [{"measurement": "Relative expression of α-SMA (α-SMA/β-actin, %)", "setting": "[3]; 1 μM", "value": 92.80, "unit": "%"}]}
{"substance": "His-Aib-Gln-Gly-Thr-Phe-Thr-Ser-Asp-Lys(PEG2-PEG2-γGlu-CO(CH2)16CO2H)-Ser-Lys-Tyr-Leu-Asp-Aib-Arg-Arg-Ala-Gln-Asp-Phe-Val-Gln-Trp-Leu-Leu-Asp-Gly-Gly-Pro-Ser-Ser-Gly-Ala-Pro-Pro-Pro-Ser-NH2 (H[Aib]QGTFTSDK([PEG2′-PEG2′-γGlu-C18 diacid])SKYLD[Aib]RRAQDFVQWLLDGGPSSGAPPPS-NH2) [Compound 19]", "values": [{"measurement": "Inhibition of LX-2 cell activation marker α-SMA (in words, from Table 2)", "setting": "[3]", "value": "obviously reduce"}, {"measurement": "Effect on expression of α-SMA (in words)", "setting": "[3]; 0.1 μM", "value": "reduce the expression of α-SMA under all concentrations"}, {"measurement": "Relative expression of α-SMA (α-SMA/β-actin, %)", "setting": "[3]; 0.1 μM", "value": 71.48, "unit": "%"}, {"measurement": "Relative expression of α-SMA (α-SMA/β-actin, %)", "setting": "[3]; 1 μM", "value": 43.46, "unit": "%"}, {"measurement": "Relative expression of α-SMA (α-SMA/β-actin, %)", "setting": "[3]; 5 μM", "value": 39.75, "unit": "%"}]}
{"substance": "His-Aib-Gln-Gly-Thr-Phe-Thr-Ser-Asp-Lys(PEG2-PEG2-γGlu-CO(CH2)16CO2H)-Ser-Lys-Tyr-Leu-Asp-Glu-Arg-Arg-Ala-Gln-Asp-Phe-Val-Gln-Trp-Leu-Leu-Asp-Gly-Gly-Pro-Ser-Ser-Gly-Ala-Pro-Pro-Pro-Ser-NH2 (H[Aib]QGTFTSDK([PEG2′-PEG2′-γGlu-C18 diacid])SKYLDERRAQDFVQWLLDGGPSSGAPPPS-NH2) [Compound 15]", "values": [{"measurement": "Relative expression of α-SMA (α-SMA/β-actin, %)", "setting": "[3]; 1 μM", "value": 77.29, "unit": "%"}]}
